{
  "source": "ChEMBL document CHEMBL3400017",
  "about": "“3-Anhydro-6-hydroxy-ophiobolin A, a fungal sesterterpene from Bipolaris oryzae induced autophagy and promoted the degradation of α-synuclein in PC12 cells” (Bioorg Med Chem Lett, 2015)",
  "key": {"[1]": {"test_system": "HeLa", "assay": "Induction of LC3 autophagy in human HeLa cells stably expressing GFP-LC3 assessed as increase of the LC3-II level at 10 uM after 6 hrs by immunoblotting", "type": "functional, cell-based"}, "[2]": {"test_system": "U2OS", "assay": "Induction of LC3 autophagy in human U2OS cells stably expressing GFP-LC3 assessed as increasing number of punctuate GFP-LC3 dots at 10 uM after 6 hrs by confocal microscopy", "type": "functional, cell-based"}, "[3]": {"test_system": "SH-SY5Y", "assay": "Induction of LC3 autophagy in human SH-SY5Y cells stably expressing GFP-LC3 assessed as increasing number of punctuate GFP-LC3 dots at 10 uM after 6 hrs by confocal microscopy", "type": "functional, cell-based"}, "[4]": {"test_system": "HeLa", "assay": "Induction of LC3 autophagy in human HeLa cells stably expressing GFP-LC3 assessed as increasing number of punctuate GFP-LC3 dots after 6 to 24 hrs by confocal microscopy", "type": "functional, cell-based"}, "[5]": {"test_system": "HeLa", "assay": "Induction of LC3 autophagy in human HeLa cells stably expressing GFP-LC3 assessed as increasing number of punctuate GFP-LC3 dots at 5 to 10 uM by confocal microscopy", "type": "functional, cell-based", "conditions": "TDE = time-dependent effect"}, "[6]": {"test_system": "HeLa", "assay": "Induction of LC3 autophagy in human HeLa cells stably expressing GFP-LC3 assessed as increase of the LC3-II level after 12 to 24 hrs by Western blotting analysis", "type": "functional, cell-based"}, "[7]": {"test_system": "HeLa", "assay": "Induction of LC3 autophagy in human HeLa cells stably expressing GFP-LC3 assessed as increase of the LC3-II level at 1 to 20 uM by Western blotting analysis", "type": "functional, cell-based", "conditions": "TDE = time-dependent effect"}, "[8]": {"test_system": "HeLa", "assay": "Induction of LC3 autophagy in human HeLa cells stably expressing GFP-LC3 assessed as increasing number of punctuate GFP-LC3 dots at 10 uM after 6 hrs by confocal microscopy in presence of bafilomycin A1", "type": "functional, cell-based"}, "[9]": {"test_system": "HeLa", "assay": "Induction of LC3 autophagy in human HeLa cells stably expressing GFP-LC3 assessed as increase of the LC3-II level at 10 uM after 6 hrs by Western blotting analysis in presence of bafilomycin A1", "type": "functional, cell-based"}, "[10]": {"test_system": "HeLa", "assay": "Induction of LC3 autophagy in ATG5 KO human HeLa cells stably expressing GFP-LC3 assessed as increase of the LC3-II level at 10 uM after 6 hrs by Western blotting analysis", "type": "functional, cell-based"}, "[11]": {"test_system": "HeLa", "assay": "Induction of LC3 autophagy in ATG5 KO human HeLa cells stably expressing GFP-LC3 assessed as increasing number of punctuate GFP-LC3 dots at 10 uM after 6 hrs by confocal microscopy", "type": "functional, cell-based"}, "[12]": {"test_system": "HeLa", "assay": "Induction of LC3 autophagy in Beclin1 KO human HeLa cells stably expressing GFP-LC3 and transfected of Beclin2 siRNA assessed as increase of the LC3-II level at 10 uM after 6 hrs by Western blotting analysis", "type": "functional, cell-based"}, "[13]": {"test_system": "HeLa", "assay": "Induction of LC3 autophagy in Beclin1 KO human HeLa cells stably expressing GFP-LC3 assessed as increase of the LC3-II level at 10 uM after 6 hrs by Western blotting analysis", "type": "functional, cell-based"}, "[14]": {"test_system": "HeLa", "assay": "Induction of mitochondrial dysfunction in human HeLa cells at 10 uM after 6 hrs using anti-Tim23 antibody by confocal microscopy", "type": "functional, cell-based"}, "[15]": {"test_system": "HeLa", "assay": "Induction of mitochondrial dysfunction in human HeLa cells at 10 uM after 6 to 24 hrs using anti-Tom20 and anti-Tim23 antibodies by Western blotting", "type": "functional, cell-based"}, "[16]": {"test_system": "HeLa", "assay": "Induction of mitochondrial dysfunction in human HeLa cells assessed as reduction in mitochondrial mass at 10 uM after 6 to 24 hrs using anti-Tom20 and anti-Tim23 antibodies by Western blotting", "type": "functional, cell-based"}, "[17]": {"test_system": "HeLa", "assay": "Induction of mitochondrial dysfunction in human HeLa cells stably expressing GFP-LC3 at 10 uM after 6 to 24 hrs using anti-Tim23 antibodies by Western blotting", "type": "functional, cell-based"}, "[18]": {"test_system": "HeLa", "assay": "Induction of mitochondrial dysfunction in human HeLa cells stably expressing GFP-LC3 assessed as loss of mitochondrial membrane potential at 10 uM after 6 to 24 hrs using TMRE staining by confocal microscopy", "type": "functional, cell-based"}, "[19]": {"test_system": "HeLa", "assay": "Induction of mitochondrial dysfunction in human HeLa cells stably expressing GFP-LC3 assessed as loss of mitochondrial membrane potential at 10 uM after 6 to 24 hrs using TMRE staining by flow cytometry", "type": "functional, cell-based"}, "[20]": {"test_system": "HeLa", "assay": "Induction of cytosolic ROS production in human HeLa cells at 5 to 10 uM after 24 hrs using DCF by flow cytometry", "type": "functional, cell-based"}, "[21]": {"test_system": "HeLa", "assay": "Induction of mitochondrial ROS production in human HeLa cells at 5 to 10 uM after 24 hrs using Mito-SOX by flow cytometry", "type": "functional, cell-based"}, "[22]": {"test_system": "HeLa", "assay": "Induction of ROS production in human HeLa cells stably expressing GFP-LC3 assessed as increasing number of punctuate GFP-LC3 dots at 5 to 10 uM after 6 hrs by confocal microscopy in presence of ROS scavenger NAC", "type": "functional, cell-based"}, "[23]": {"test_system": "HeLa", "assay": "Induction of ROS production in human HeLa cells stably expressing GFP-LC3 assessed as increase of the LC3-II level at 5 to 10 uM after 6 hrs by Western blot analysis in presence of ROS scavenger NAC", "type": "functional, cell-based"}, "[24]": {"target": "T1, c-Jun N-terminal kinase, JNK (Homo sapiens) (UniProt P45983+P53779+P45984)", "assay": "Induction of JNK phosphorylation in human HeLa cells stably expressing GFP-LC3 assessed as punctuate GFP-LC3 formation at 5 uM after 6 hrs by confocal microscopy", "type": "cell-based"}, "[25]": {"target": "T1, c-Jun N-terminal kinase, JNK (Homo sapiens)", "assay": "Induction of JNK phosphorylation in human HeLa cells stably expressing GFP-LC3 assessed as increase of the LC3-II level at 5 uM after 6 hrs by Western blot analysis", "type": "cell-based"}, "[26]": {"test_system": "PC-12", "assay": "Induction of autophagic degradation of alpha-synuclein in rat PC12 cells cotransfected with GFP-LC3 assessed as co-localiztion of alpha-synuclein with GFP-LC3 puncta by confocal microscopy", "type": "functional, cell-based"}, "[27]": {"test_system": "PC-12", "assay": "Induction of autophagic degradation of alpha-synuclein in rat PC12 cells cotransfected with GFP-LC3 and alpha-synuclein-myc assessed as reduction in protein level at 10 uM after 12 hrs by Western blot analysis", "type": "functional, cell-based"}, "[28]": {"test_system": "PC-12", "assay": "Induction of autophagic degradation of alpha-synuclein in rat PC12 cells cotransfected with GFP-LC3 and alpha-synuclein-myc at 10 uM after 12 hrs by Western blot analysis in presence of bafilomycin A1", "type": "functional, cell-based"}, "[29]": {"test_system": "PC-12", "assay": "Induction of autophagic degradation of alpha-synuclein in […] KO rat PC12 cells cotransfected with GFP-LC3 and alpha-synuclein-myc at 10 uM after 12 hrs by Western blot analysis", "type": "functional, cell-based"}, "[30]": {"target": "T1, c-Jun N-terminal kinase, JNK (Homo sapiens)", "assay": "Induction of JNK phosphorylation in human HeLa cells stably expressing GFP-LC3 assessed as punctuate GFP-LC3 formation at 5 uM after 6 hrs by confocal microscopy in presence of SP600125", "type": "cell-based"}, "[31]": {"target": "T1, c-Jun N-terminal kinase, JNK (Homo sapiens)", "assay": "Induction of JNK phosphorylation in human HeLa cells stably expressing GFP-LC3 assessed as increase of the LC3-II level at 5 uM after 6 hrs by Western blot analysis in presence of SP600125", "type": "cell-based"}, "[32]": {"test_system": "HeLa", "assay": "Induction of autophagy in human HeLa cells stably expressing GFP-LC3 assessed as increasing number of punctuate GFP-LC3 dots by high-throughput screening", "type": "functional, cell-based"}, "[33]": {"test_system": "HeLa", "assay": "Induction of LC3 autophagy in human HeLa cells stably expressing GFP-LC3 assessed as increasing number of punctuate GFP-LC3 dots at 10 uM after 6 hrs by confocal microscopy", "type": "functional, cell-based"}},
  "note": "The source made the active and inactive calls. No cut-off for these calls is given here.",
  "data": [
    {"smiles": "CC(C)=C[C@H]1C[C@H](C)[C@]2(CC[C@]3(C)C[C@@H]4C(C)=CC(=O)[C@]4(O)/C(C=O)=C\\C[C@H]32)O1", "values": [
      {"measurement": "Activity", "setting": "[1]", "result": "Active"},
      {"measurement": "Activity", "setting": "[2]", "result": "Active"},
      {"measurement": "Activity", "setting": "[3]", "result": "Active"},
      {"measurement": "Activity", "setting": "[4]", "result": "Dose-dependent effect"},
      {"measurement": "Activity", "setting": "[5]", "result": "tde"},
      {"measurement": "Activity", "setting": "[6]", "result": "Dose-dependent effect"},
      {"measurement": "Activity", "setting": "[7]", "result": "tde"},
      {"measurement": "Activity", "setting": "[8]", "result": "Active"},
      {"measurement": "Activity", "setting": "[9]", "result": "Active"},
      {"measurement": "Activity", "setting": "[10]", "result": "inactive"},
      {"measurement": "Activity", "setting": "[11]", "result": "inactive"},
      {"measurement": "Activity", "setting": "[12]", "result": "inactive"},
      {"measurement": "Activity", "setting": "[13]", "result": "Active"},
      {"measurement": "Activity", "setting": "[14]", "result": "Active"},
      {"measurement": "Activity", "setting": "[15]", "result": "inactive"},
      {"measurement": "Activity", "setting": "[16]", "result": "inactive"},
      {"measurement": "Activity", "setting": "[17]", "result": "inactive"},
      {"measurement": "Activity", "setting": "[18]", "result": "Active"},
      {"measurement": "Activity", "setting": "[19]", "result": "Active"},
      {"measurement": "Activity", "setting": "[20]", "result": "Active"},
      {"measurement": "Activity", "setting": "[21]", "result": "Active"},
      {"measurement": "Activity", "setting": "[22]", "result": "inactive"},
      {"measurement": "Activity", "setting": "[23]", "result": "inactive"},
      {"measurement": "Activity", "setting": "[24]", "result": "Active"},
      {"measurement": "Activity", "setting": "[25]", "result": "Active"},
      {"measurement": "Activity", "setting": "[26]", "result": "Active"},
      {"measurement": "Activity", "setting": "[27]", "result": "Active"},
      {"measurement": "Activity", "setting": "[28]", "result": "inactive"},
      {"measurement": "Activity", "setting": "[29]", "result": "inactive"},
      {"measurement": "Activity", "setting": "[30]", "result": "inactive"},
      {"measurement": "Activity", "setting": "[31]", "result": "inactive"},
      {"measurement": "Activity", "setting": "[32]", "result": "Active"},
      {"measurement": "Activity", "setting": "[33]", "result": "Active"}
    ]},
    {"smiles": "CC(C)=C[C@H]1C[C@H](C)[C@]2(CC[C@]3(C)C[C@@H]4C(C)=CC(=O)[C@@H]4/C(C=O)=C\\C[C@H]32)O1", "values": [
      {"measurement": "Activity", "setting": "[33]", "result": "inactive"}
    ]}
  ]
}
